These are literature values, as cited in patent publication US20100119624A1, “BENZISOXAZOLE MODULATORS OF D2 RECEPTOR AND/OR 5-HT2A RECEPTOR” (AUSPEX PHARMACEUTICALS, INC., priority 2008, published 2010).

For data set [1] the following is noted: coadministration of nafzodone, a competitive CYP3A inhibitor.
The conditions of data set [2]: in vivo.
Data set [3] relates to prolactin. The following applies: in vivo.

The structures appear in SMILES notation.

For the molecule `Cc1nc2n(c(=O)c1CCN1CCC(c3noc4cc(F)ccc34)CC1)CCCC2` [Risperidone, 4-[2-[4-(6-fluorobenzo[d]isoxazol-3-yl)-1-piperidyl]ethyl]-3-methyl-2,6-diazabicyclo[4.4.0]deca-1,3-dien-5-one], in data set [1], the “decrease in risperidone clearance” value is approximately 50%. Besides, the half-life entry in data set [2] is listed as “about 2 hours”.

For `Cc1nc2n(c(=O)c1CCN1CCC(c3noc4cc(F)ccc34)CC1)CCCC2O` (stereo not drawn) [9-Hydroxyrisperidone], in data set [3], the levels of prolactin result is “elevation in the levels of prolactin”.
